# Paper PMC4890880 (ACS infectious diseases, 2016)
# Where two headings read alike, the source gives them in different places.
# Test system: HepG2-A16-CD81EGFP cells
# Settings: for IC50: read-out: Tox_IC50, HepG2 cytotoxicity
# [1] = sheet 2nd round, maximal inhibition in dose response
# [2] = 2nd round, maximal inhibition in dose series
SMILES,IC50 (sheet 2nd round) [µM],Tox_max_inhibition (%) [1] [%],"IC50 (sheet ""2nd round"") [µM]","Tox_max_inhibition (%) (sheet ""2nd round"")",also measured
O=C(Nc1ccccc1F)N1CCCCN2[C@H](CO)[C@H](c3ccc(/C=C/c4ccccc4)cc3)[C@@H]2C1 [BRD-K85670919-001-01-1],> 10,13,,,
Cc1cc(C(=O)Nc2ccc3c(c2)C(=O)N(C)[C@@H]2CC[C@H](CC(=O)NCc4ccc(-c5ccccc5)cc4)O[C@@H]2CO3)no1 [BRD-K35841161-001-02-2],> 10,37,,,
COc1ccc(C(=O)N2C[C@@H]3[C@H](c4ccccc42)[C@H](CO)N3C(=O)Cc2ccccn2)cc1 [BRD-K13582094-001-01-2],> 10,4,,,
CO[C@@H]1CN(C)C(=O)c2ccc(NC(=O)c3ccc4c(c3)OCO4)cc2OC[C@@H](C)N(Cc2ccc3c(c2)OCO3)C[C@H]1C [BRD-K38901607-001-01-5],,,> 10,11,
CO[C@@H]1CN(C)C(=O)c2ccc(NC(=O)Nc3ccccc3F)cc2OC[C@@H](C)N(Cc2ccccc2F)C[C@H]1C [BRD-K00229958-001-01-0],> 10,7,,,
C[C@@H]1CCCCO[C@@H](CN(C)C(=O)Nc2cccc3ccccc23)[C@H](C)CN([C@@H](C)CO)C(=O)c2cc(NC(=O)CCC(F)(F)F)ccc2O1 [BRD-K26887637-001-01-4],> 10,11,,,
N#C[C@H]1N[C@H](CO)[C@H]1c1ccc(C#CC2CCCCC2)cc1 [BRD-K74656908-001-01-6],> 10,6,,,
COc1ccc2c3c([nH]c2c1)[C@@H](CO)N(S(C)(=O)=O)CC31CCN(C(=O)Nc2ccccc2)CC1 [BRD-K31411295-001-01-9],,,> 10,17,
N#C[C@H]1[C@@H](c2ccc(-c3cccnc3)cc2)[C@@H](CO)N1C(=O)Nc1ccc(F)cc1 [BRD-K86354270-001-02-2],> 10,14,,,
C[C@@H]1CCCCO[C@H](CN(C)S(=O)(=O)c2ccccc2)[C@@H](C)CN([C@@H](C)CO)C(=O)c2cc(NC(=O)Nc3ccc4c(c3)OCO4)ccc2O1 [BRD-K94107458-001-01-0],,,> 10,5,
COc1ccc2c3c(n(C)c2c1)[C@@H](CO)N(Cc1ccc2c(c1)OCO2)CC31CN(C(=O)c2ccc3c(c2)OCO3)C1 [BRD-K07064121-001-01-6],,,> 10,18,
O=C(C[C@@H]1C[C@@H]2c3cc(NC(=O)c4ccc5c(c4)OCO5)ccc3O[C@@H]2[C@@H](CO)O1)NCc1ccc(Oc2ccccc2)cc1 [BRD-K16956545-001-01-0],,,> 10,5,
Cc1ccccc1-c1ccc([C@@H]2[C@H](CO)N3CCCCN(S(=O)(=O)Cc4ccccc4)C[C@@H]23)cc1 [BRD-K92048968-001-01-1],> 10,7,,,
O=C(Nc1ccccc1F)N1CCCCN2[C@H](C1)[C@H](c1ccc(/C=C/c3ccccc3)cc1)[C@@H]2CO [BRD-K41549807-001-01-5],,,> 10,10,
CCCNC(=O)N1[C@H](C#N)[C@H](c2ccc(-c3ccccc3F)cc2)[C@H]1CO [BRD-K88402291-001-01-4],,,> 10,3,
CCCC(=O)N1CCC2(CC1)CN(S(=O)(=O)c1ccc(C)cc1)[C@@H](CO)c1[nH]c3cc(OC)ccc3c12 [BRD-K73703617-001-01-9],,,,,"Tox_max_inhibition (%) [2]: 12%; IC50 (2nd round, unit inferred): > 10 µM"
COc1ccc(C#Cc2ccc3c(c2)O[C@@H](CN(C)C(=O)Nc2cccc(OC)c2)[C@@H](C)CN([C@@H](C)CO)S3(=O)=O)cc1 [BRD-K52609475-001-01-4],,,,,"Tox_max_inhibition (%) [2]: 6%; IC50 (2nd round, unit inferred): > 10 µM"
O=C(C[C@H]1C[C@H]2c3cc(NC(=O)c4ccc5c(c4)OCO5)ccc3O[C@H]2[C@H](CO)O1)NCc1ccc(Oc2ccccc2)cc1 [BRD-K67774729-001-02-1],> 10,24,,,
CCCNC(=O)N1[C@H](C#N)[C@H](c2ccccc2-c2ccc(OC)cc2)[C@@H]1CO [BRD-K19492647-001-01-0],,,,,"Tox_max_inhibition (%) [2]: 9%; IC50 (2nd round, unit inferred): > 10 µM"
O=C(C1CC1)N1C[C@@H]2N[C@H](C1)C2c1ccc(-c2ccccc2F)cc1 (some centres unmarked) [BRD-K95724677-019-01-8],3.72,93,,,
O=C(C[C@@H]1C[C@H]2c3cc(NC(=O)c4ccc5c(c4)OCO5)ccc3O[C@H]2[C@@H](CO)O1)NCc1ccc(Oc2ccccc2)cc1 [BRD-K67862512-001-01-7],> 10,23,,,
CO[C@@H]1CN(C)C(=O)c2ccc(NC(=O)Nc3ccccc3F)cc2OC[C@@H](C)N(CC2CC2)C[C@H]1C [BRD-K88085458-001-01-6],,,> 10,6,
